This assay concerns the target BRD4 (Homo sapiens, UniProt O60885). Put plainly: Time Resolved Fluorescence Resonance Energy Transfer (TR-FRET) binding assay, BRD4. As to conditions: one of the FRET assays described; read-out: FRET BRD4 IC50. Background: TR-FRET usually uses a lanthanide donor and a delayed reading to cut background.

Bounds are passed on as bounds.

As to `Cc1nnn(C)c1-c1cnc2c3c(S(C)(=O)=O)cccc3n([C@H](c3ccccc3)C3CCOCC3)c2c1` [Example 259, 5-{9-Methanesulfonyl-5-[(S)-oxan-4-yl(phenyl)methyl]-5H-pyrido[3,2-b]indol-3-yl}-1,4-dimethyl-1H-1,2,3-triazole], the IC50 – broadly, the concentration that inhibits the measured activity by half – was < 5 nM.

As to `CCOC(=O)Nc1ccc2c3ncc(-c4c(C)nnn4C)cc3n([C@H](c3ccccc3)C3CCOCC3)c2c1` [Example 366, Ethyl N-[3-(dimethyl-1H-1,2,3-triazol-5-yl)-5-[(S)-oxan-4-yl(phenyl)methyl]-5H-pyrido[3,2-b]indol-7-yl]carbamate], the IC50 was < 5 nM.

For the compound `Cc1nnn(C)c1-c1cnc2c3ccc(NC(=O)OC(C)C)cc3n([C@H](c3ccccc3)C3CCOCC3)c2c1` [Example 367, Propan-2-yl N-[3-(dimethyl-1H-1,2,3-triazol-5-yl)-5-[(S)-oxan-4-yl(phenyl)methyl]-5H-pyrido[3,2-b]indol-7-yl]carbamate], the IC50 was < 5 nM.

`Cc1cccnc1C(C1CCOCC1)n1c2cc(C(C)(C)O)ccc2c2ncc(-c3c(C)nnn3C)cc21` (single isomer, unassigned) [Example 301]: the IC50 was < 5 nM.

For the compound `[2H]C([2H])([2H])c1nnn(C)c1-c1cnc2c3ccc(S(C)(=O)=O)cc3n(C(c3ncccc3F)C3CCC(F)(F)CC3)c2c1` (centres unmarked) [Example 240, 2-[(4,4-Difluorocyclohexyl)({7-methanesulfonyl-3-[4-(^2H3)methyl-1-methyl-1H-1,2,3-triazol-5-yl]-5H-pyrido[3,2-b]indol-5-yl})methyl]-3-fluoropyridine], the IC50 is < 5 nM.

For `Cc1noc(C)c1-c1cnc2c3ccc(C(C)(C)O)cc3n(C(c3ccc(F)cc3F)C3CCOCC3)c2c1` (single isomer, unassigned) [Example 125, 2-{5-[(2,4-Difluorophenyl)(oxan-4-yl)methyl]-3-(dimethyl-1,2-oxazol-4-yl)-5H-pyrido[3,2-b]indol-7-yl}propan-2-ol], the IC50 is < 5 nM.

Regarding `Cc1nnn(C)c1-c1cnc2c3cccc(S(C)(=O)=O)c3n([C@H](c3ccccc3)C3CCOCC3)c2c1` [Example 376, 5-{6-Methanesulfonyl-5-[(S)-oxan-4-yl(phenyl)methyl]-5H-pyrido[3,2-b]indol-3-yl}-1,4-dimethyl-1H-1,2,3-triazole], the IC50 was < 5 nM.

With `[2H]C([2H])([2H])c1nnn(C)c1-c1cnc2c3cc(F)c(C(C)(C)O)c(F)c3n([C@H](c3ccccc3)C3CCOCC3)c2c1` [Example 452, 2-{6,8-Difluoro-3-[4-(^2H3)methyl-1-methyl-1H-1,2,3-triazol-5-yl]-5-[(S)-oxan-4-yl(phenyl)methyl]-5H-pyrido[3,2-b]indol-7-yl}propan-2-ol], the IC50 is < 5 nM.

On to `[2H][C@@](c1ccccc1)(C1CCOCC1)n1c2cc(C(C)(C)O)ccc2c2ncc(-c3c(C)nnn3C)cc21` [Example 90, 2-[3-(Dimethyl-1H-1,2,3-triazol-5-yl)-5-[(S)-oxan-4-yl(phenyl)(^2H)methyl]-5H-pyrido[3,2-b]indol-7-yl]propan-2-ol], for which the IC50 is < 5 nM.

Consider `Cc1nnn(C)c1-c1cnc2c3ccc(C(C)(C)O)cc3n(C(c3ncccc3F)C3CCOCC3)c2c1` (single isomer, unassigned) [Example 293], for which the IC50 is < 5 nM.

Consider `[2H]C([2H])([2H])c1nnn(C)c1-c1cnc2c3c(S(C)(=O)=O)cc(F)c(F)c3n([C@H](c3ccccc3)C3CCOCC3)c2c1` [Example 161, 5-{6,7-Difluoro-9-methanesulfonyl-5-[(S)-oxan-4-yl(phenyl)methyl]-5H-pyrido[3,2-b]indol-3-yl}-4-(^2H3)methyl-1-methyl-1H-1,2,3-triazole], for which the IC50 was < 5 nM.

With `[2H]C([2H])([2H])c1nnn(C)c1-c1cnc2c3ccc(C(C)(C)O)cc3n(C(c3ccc(F)cc3F)C3CCOCC3)c2c1` (centres unmarked) [Example 281, 2-{5-[(2,4-Difluorophenyl)(oxan-4-yl)methyl]-3-[4-(^2H3)methyl-1-methyl-1H-1,2,3-triazol-5-yl]-5H-pyrido[3,2-b]indol-7-yl}propan-2-ol], the IC50 is < 5 nM.

Regarding `[2H]C([2H])([2H])c1nnn(C)c1-c1cnc2c3ccc(C(C)(C)O)cc3n(C(c3cc(C)on3)C3CCOCC3)c2c1` (centres unmarked) [Example 309, 2-{5-[(5-Methyl-1,2-oxazol-3-yl)(oxan-4-yl)methyl]-3-[4-(^2H3)methyl-1-methyl-1H-1,2,3-triazol-5-yl]-5H-pyrido[3,2-b]indol-7-yl}propan-2-ol], the IC50 was < 25 nM.

For the compound `Cc1noc(C)c1-c1cnc2c3ccc(S(C)(=O)=O)cc3n(C(CCC(F)(F)F)c3ccccc3)c2c1` (single isomer, unassigned) [Example 38, 4-[7-Methanesulfonyl-5-(4,4,4-trifluoro-1-phenylbutyl)-5H-pyrido[3,2-b]indol-3-yl]-3,5-dimethyl-1,2-oxazole], the IC50 was < 25 nM.

For `Cc1nnn(C)c1-c1cnc2c3ccc(C(C)(O)CO)cc3n([C@H](c3ccccc3)C3CCOCC3)c2c1` (stereo partly drawn) [Example 424, 2-[3-(Dimethyl-1H-1,2,3-triazol-5-yl)-5-[(S)-oxan-4-yl(phenyl)methyl]-5H-pyrido[3,2-b]indol-7-yl]propane-1,2-diol], the IC50 was < 5 nM.

Take `Cc1nnn(C)c1-c1cnc2c3ccc(C(C)(C)O)cc3n([C@H](c3ccc(F)cc3)C3CCOCC3)c2c1` [Example 72]: the IC50 is < 25 nM.

In the case of `Cc1noc(C)c1-c1cnc2c3ccc(C(C)(C)O)cc3n(Cc3ccc(F)cc3)c2c1` [Example 48], the IC50 was < 25 nM.

As for `Cc1nnn(C)c1-c1cnc2c3cc(C(=O)N4CC(C)(O)C4)ccc3n([C@H](c3ccccc3)C3CCOCC3)c2c1` [Example 427, 1-[3-(Dimethyl-1H-1,2,3-triazol-5-yl)-5-[(S)-oxan-4-yl(phenyl)methyl]-5H-pyrido[3,2-b]indole-8-carbonyl]-3-methylazetidin-3-ol], the IC50 is < 5 nM.

In the case of `Cc1cc(C(C2CCOCC2)n2c3cc(C(C)(C)O)ccc3c3ncc(-c4c(C)nnn4C)cc32)n(C)n1` (single isomer, unassigned) [Example 341, 2-[3-(Dimethyl-1H-1,2,3-triazol-5-yl)-5-[(1,3-dimethyl-1H-pyrazol-5-yl)(oxan-4-yl)methyl]-5H-pyrido[3,2-b]indol-7-yl]propan-2-ol], the IC50 was < 5 nM.

As for `Cc1noc(C)c1-c1cnc2c3ccc(C(C)(C)O)cc3n([C@H](CCC(F)(F)F)c3ccccc3)c2c1` [Example 10], the IC50 was < 25 nM.

Turning to `Cc1oncc1-c1cnc2c3ccc(C(C)(C)O)cc3n(C(c3ccc(F)cc3)C3CCOCC3)c2c1` (single isomer, unassigned) [Example 40, 2-{5-[(4-Fluorophenyl)(oxan-4-yl)methyl]-3-(5-methyl-1,2-oxazol-4-yl)-5H-pyrido[3,2-b]indol-7-yl}propan-2-ol], the IC50 is < 25 nM.

Take `Cc1nnn(C)c1-c1cnc2c3cc(C(C)(C)O)ccc3n([C@H](c3ccccc3)C3CCOCC3)c2c1` [Example 175, 2-[3-(Dimethyl-1H-1,2,3-triazol-5-yl)-5-[(S)-oxan-4-yl(phenyl)methyl]-5H-pyrido[3,2-b]indol-8-yl]propan-2-ol]: the IC50 is < 5 nM.

On to `Cc1noc(C)c1-c1cnc2c3ccc(C(C)(C)O)cc3n(C(c3c(F)cc(F)cc3F)C3CCOCC3)c2c1` (single isomer, unassigned) [Example 128, 2-[3-(Dimethyl-1,2-oxazol-4-yl)-5-[oxan-4-yl(2,4,6-trifluorophenyl)methyl]-5H-pyrido[3,2-b]indol-7-yl]propan-2-ol], for which the half-maximal inhibitory concentration (IC50) was < 25 nM.
